Measurements: BigSolDB 2.1

O=[N+]([O-])c1ccc(Cl)c(Cl)c1
solubility (mole fraction)
Details | in ethanol | in methanol
278.15 K | 0.02 | 0.0208
280.65 K | 0.0271 | 0.0251
283.15 K | 0.0352 | 0.0296
285.65 K | 0.0444 | 0.0353
288.15 K | 0.0549 | 0.0422
290.65 K | 0.0661 | 0.0505
293.15 K | 0.0769 | 0.0611
295.65 K | 0.0888 | 0.0724
298.15 K | 0.0997 | 0.0873
300.65 K | 0.111 | 0.105
303.15 K | 0.119 | 0.125
